The assay has as its system HCoV-229E. Description: Antiviral activity and toxicity against HCoV-229E. In kind it is cell-based.

Consider two compounds from patent US20230173077A1 (AJK BIOPHARMACEUTICAL, LLC, priority 2020, published 2023).

Like-named read-outs stand apart in the source and are kept apart here.

`CCC(CC)COC(=O)[C@H](C)N[P@](=O)(OC[C@H]1O[C@@](C#N)(c2ccc3c(N)ncnn23)[C@H](O)[C@@H]1O)Oc1ccccc1` [RDV, Remdesivir] displayed a half-maximal effective concentration (EC50) (Human coronavirus 229E) of 0.07 µM. In turn, `CCCCCCCCCCCCCC(=O)OCC1OC(n2cc(F)c(N)nc2=O)CS1` (centres unmarked) [5′-O-tetradecanoyl ester conjugate of 2′,3′-dideoxy-5-fluoro-3′-thiacytidine] had an EC50 of 82 µM.

Usually EC50 stands for the concentration giving half of the maximal effect. Higher therefore signals a need for much substance.
